Laboratory results: patent US12527800B2, “Therapeutic agent for Parkinson's disease” (KYOWA KIRIN CO., LTD., priority 2019, dated 2026)

Tested on: patients of Parkinson's disease experiencing motor fluctuations
Test: Pooled analysis of phase 2b and phase 3 clinical studies of istradefylline combined with L-DOPA: change from baseline to week 12 and CGI-I at week 12
Assay type: in vivo, human
Conditions: for Mean daily OFF time, change from baseline to week 12: 12 weeks; for Mean daily OFF time, change from baseline to week 12 / Mean daily ON time with dyskinesia, change from baseline to week 12 / Mean daily ON time with non-troublesome dyskinesia, change from baseline to week 12 / Mean daily ON time with troublesome dyskinesia, change from baseline to week 12 / Mean daily ON time without dyskinesia, change from baseline to week 12 / Mean daily ON time without troublesome dyskinesia, change from baseline to week 12 / Mean daily percentage of OFF time, change from baseline to week 12 / Mean daily percentage of ON time with dyskinesia, change from baseline to week 12 / Mean daily percentage of ON time with non-troublesome dyskinesia, change from baseline to week 12 / Mean daily percentage of ON time with troublesome dyskinesia, change from baseline to week 12 / Mean daily percentage of ON time without dyskinesia, change from baseline to week 12 / Mean daily percentage of ON time without troublesome dyskinesia, change from baseline to week 12 / Total UPDRS Parts I-III at ON state, change from baseline to week 12 / UPDRS Part I score, change from baseline to week 12 / UPDRS Part II score OFF state, change from baseline to week 12 / UPDRS Part II score ON state, change from baseline to week 12 / UPDRS Part III score at ON state, change from baseline to week 12 / UPDRS Part IV score, change from baseline to week 12: mean ± SD; for CGI-I Minimally improved, % of patients / CGI-I Minimally improved, number of patients / CGI-I Minimally worse, % of patients / CGI-I Minimally worse, number of patients / CGI-I Much improved, % of patients / CGI-I Much improved, number of patients / CGI-I Much worse, % of patients / CGI-I Much worse, number of patients / CGI-I No change, % of patients / CGI-I No change, number of patients / CGI-I Very much improved, % of patients / CGI-I Very much improved, number of patients / CGI-I Very much worse, % of patients / CGI-I Very much worse, number of patients: week 12
Experimental: A pooled analysis was performed for two clinical studies of istradefylline combined with L-DOPA previously conducted in Japan. Both studies were performed according to the principles of the Declaration of Helsinki and were identically designed for 12-week, multicenter, randomized, double-blind, placebo-controlled, and parallel-group studies approved by the relevant institutional review boards of each center [(i) Mizuno Y, Kondo T. Adenosine A2A receptor antagonist istradefylline reduces daily OFF time in Parkinson's disease. Mov Disord 2013; 28: 1138-41, and (ii) Mizuno Y, Hasegawa K, Kondo T, et al. Clinical efficacy of istradefylline (KW-6002) in Parkinson's disease: a randomized, controlled study. Mov Disord 2010; 25(10): 1437-43)]. Both studies were registered in ClinicalTrials.gov (NCT00455507 [phase 2b] and NCT00955526 [phase 3]). Both studies enrolled patients of Parkinson's disease who were experiencing motor fluctuations.
Key inclusion criteria included age 20 years, stages 2-4 (OFF state) based on the Modified Hoehn and Yahr (mH&Y) scale, stable treatment regimen of antiparkinsonian drugs, and motor fluctuations with an OFF time of 2 hours or longer per day. Key exclusion criteria included history of surgical operation for Parkinson's disease, cognitive impairment, and pregnancy. The study protocols were approved by the institutional review boards at all participating study sites, and written informed consent was obtained from all patients prior to participation.
In both studies, eligible subjects were randomized to one of three groups: 12-week istradefylline 20 mg/day group, 12-week istradefylline 40 mg/day group, and 12-week placebo group. The subjects attended site visits at weeks 2, 4, 8, and 12 after randomization, and submitted patient diaries covering the 7-day period prior to each visit. The full analysis set included subjects who received at least one dose of study drug and completed at least one set of patient diaries.
The primary outcomes were changes in OFF time (hours/day) from baseline to 12 weeks obtained from the patient diaries, which were compared between the placebo group and the istradefylline group. Other outcomes included changes (%) in daily OFF time, changes in ON time without troublesome dyskinesia (“Good” ON time) (Hauser RA, Deckers F, Lehert P. Parkinson's disease home diary: further validation and implications for clinical trials. Mov Disord 2004; 19(12): 1409-13), (which was the summation of ON time without dyskinesia and ON time with non-troublesome dyskinesia), UPDRS parts I-IV score, and changes in Clinical Global Impressions-Improvement (CGI-I) score from baseline to 12 weeks. The varying from baseline values, and the treatment effect were determined as a difference in mean change between the placebo group and the istradefylline group during the follow up period.
Baseline data were summarized for all and respective treatment groups (placebo and istradefylline: 20 mg or 40 mg). Continuous variables were expressed as mean and standard deviation (SD), whereas categorical variables were expressed as proportions. The following statistical analyses were performed for patients without any missing data (listwise deletion or complete case analysis).

[1] = 20 mg/day, listed as Istradefylline
[2] = 40 mg/day, listed as Istradefylline

CCn1c(=O)c2c(nc(/C=C/c3ccc(OC)c(OC)c3)n2C)n(CC)c1=O [istradefylline]
Mean daily OFF time, change from baseline to week 12 (20 mg/day, N = 235): significant reductions
Mean daily OFF time, change from baseline to week 12 (20 mg/day, N = 235, listed as Istradefylline): -1.23 ± 1.97 h
Mean daily ON time with dyskinesia, change from baseline to week 12 (20 mg/day): 0.19 ± 1.53 h
Mean daily ON time with non-troublesome dyskinesia, change from baseline to week 12 (20 mg/day): significantly increased
Mean daily ON time with troublesome dyskinesia, change from baseline to week 12 (20 mg/day): 0.03 ± 1.33 h
Mean daily ON time without dyskinesia, change from baseline to week 12 (20 mg/day): significantly increased
Mean daily ON time without troublesome dyskinesia, change from baseline to week 12 (20 mg/day): significantly increased
Mean daily percentage of OFF time, change from baseline to week 12 (20 mg/day): significant reductions
Mean daily percentage of ON time with dyskinesia, change from baseline to week 12 (20 mg/day): 1.32 ± 9.36%
Mean daily percentage of ON time with non-troublesome dyskinesia, change from baseline to week 12 (20 mg/day): significantly increased
Mean daily percentage of ON time with troublesome dyskinesia, change from baseline to week 12 (20 mg/day): 0.15 ± 8.12%
Mean daily percentage of ON time without dyskinesia, change from baseline to week 12 (20 mg/day): significantly increased
Mean daily percentage of ON time without troublesome dyskinesia, change from baseline to week 12 (20 mg/day): significantly increased
Total UPDRS Parts I-III at ON state, change from baseline to week 12 (20 mg/day): significant reductions
UPDRS Part I score, change from baseline to week 12 (20 mg/day): −0.2 ± 0.9
UPDRS Part II score OFF state, change from baseline to week 12 (20 mg/day): −1.8 ± 4.1
UPDRS Part II score ON state, change from baseline to week 12 (20 mg/day): −0.5 ± 2.3
UPDRS Part III score at ON state, change from baseline to week 12 (20 mg/day): significant reductions
UPDRS Part IV score, change from baseline to week 12 (20 mg/day): −0.1 ± 1.6
Mean daily ON time with non-troublesome dyskinesia, change from baseline to week 12 [1]: 0.16 ± 1.56 h
Mean daily ON time without dyskinesia, change from baseline to week 12 [1]: 1.03 ± 2.20 h
Mean daily ON time without troublesome dyskinesia, change from baseline to week 12 [1]: 1.19 ± 2.44 h
Mean daily percentage of OFF time, change from baseline to week 12 [1]: −7.62 ± 12.62%
Mean daily percentage of ON time with non-troublesome dyskinesia, change from baseline to week 12 [1]: 1.17 ± 9.54%
Mean daily percentage of ON time without dyskinesia, change from baseline to week 12 [1]: 6.28 ± 13.68%
Mean daily percentage of ON time without troublesome dyskinesia, change from baseline to week 12 [1]: 7.45 ± 14.95%
Total UPDRS Parts I-III at ON state, change from baseline to week 12 [1]: −5.8 ± 8.6
UPDRS Part III score at ON state, change from baseline to week 12 [1]: −5.1 ± 7.2
CGI-I Minimally improved, % of patients (20 mg/day): (36.2) %
CGI-I Minimally improved, number of patients (20 mg/day): 85 number of patients
CGI-I Minimally worse, % of patients (20 mg/day): (5.1) %
CGI-I Minimally worse, number of patients (20 mg/day): 12 number of patients
CGI-I Much improved, % of patients (20 mg/day): (18.3) %
CGI-I Much improved, number of patients (20 mg/day): 43 number of patients
CGI-I Much worse, % of patients (20 mg/day): (1.3) %
CGI-I Much worse, number of patients (20 mg/day): 3 number of patients
CGI-I No change, % of patients (20 mg/day): (36.2) %
CGI-I No change, number of patients (20 mg/day): 85 number of patients
CGI-I Very much improved, % of patients (20 mg/day): (2.6) %
CGI-I Very much improved, number of patients (20 mg/day): 6 number of patients
CGI-I Very much worse, % of patients (20 mg/day): (0.4) %
CGI-I Very much worse, number of patients (20 mg/day): 1 number of patients
Mean daily OFF time, change from baseline to week 12 (40 mg/day, N = 247): significant reductions
Mean daily OFF time, change from baseline to week 12 (40 mg/day, N = 247, listed as Istradefylline): -1.27 ± 2.42 h
Mean daily ON time with dyskinesia, change from baseline to week 12 (40 mg/day): 0.20 ± 1.93 h
Mean daily ON time with non-troublesome dyskinesia, change from baseline to week 12 (40 mg/day): significantly increased
Mean daily ON time with troublesome dyskinesia, change from baseline to week 12 (40 mg/day): 0.06 ± 1.13 h
Mean daily ON time without dyskinesia, change from baseline to week 12 (40 mg/day): significantly increased
Mean daily ON time without troublesome dyskinesia, change from baseline to week 12 (40 mg/day): significantly increased
Mean daily percentage of OFF time, change from baseline to week 12 (40 mg/day): significant reductions
Mean daily percentage of ON time with dyskinesia, change from baseline to week 12 (40 mg/day): 1.28 ± 11.40%
Mean daily percentage of ON time with non-troublesome dyskinesia, change from baseline to week 12 (40 mg/day): significantly increased
Mean daily percentage of ON time with troublesome dyskinesia, change from baseline to week 12 (40 mg/day): 0.36 ± 6.44%
Mean daily percentage of ON time without dyskinesia, change from baseline to week 12 (40 mg/day): significantly increased
Mean daily percentage of ON time without troublesome dyskinesia, change from baseline to week 12 (40 mg/day): significantly increased
Total UPDRS Parts I-III at ON state, change from baseline to week 12 (40 mg/day): significant reductions
UPDRS Part I score, change from baseline to week 12 (40 mg/day): −0.1 ± 1.0
UPDRS Part II score OFF state, change from baseline to week 12 (40 mg/day): significant reductions
UPDRS Part II score ON state, change from baseline to week 12 (40 mg/day): −0.7 ± 2.2
UPDRS Part III score at ON state, change from baseline to week 12 (40 mg/day): significant reductions
UPDRS Part IV score, change from baseline to week 12 (40 mg/day): significant reductions
Mean daily ON time with non-troublesome dyskinesia, change from baseline to week 12 [2]: 0.15 ± 1.36 h
Mean daily ON time without dyskinesia, change from baseline to week 12 [2]: 0.99 ± 2.86 h
Mean daily ON time without troublesome dyskinesia, change from baseline to week 12 [2]: 1.13 ± 2.65 h
Mean daily percentage of OFF time, change from baseline to week 12 [2]: −7.76 ± 15.02%
Mean daily percentage of ON time with non-troublesome dyskinesia, change from baseline to week 12 [2]: 0.92 ± 8.26%
Mean daily percentage of ON time without dyskinesia, change from baseline to week 12 [2]: 6.46 ± 17.10%
Mean daily percentage of ON time without troublesome dyskinesia, change from baseline to week 12 [2]: 7.39 ± 15.73%
Total UPDRS Parts I-III at ON state, change from baseline to week 12 [2]: −6.3 ± 8.1
UPDRS Part II score OFF state, change from baseline to week 12 [2]: −2.0 ± 3.8
UPDRS Part III score at ON state, change from baseline to week 12 [2]: −5.5 ± 6.6
UPDRS Part IV score, change from baseline to week 12 [2]: −0.5 ± 1.6
CGI-I Minimally improved, % of patients (40 mg/day): (32.5) %
CGI-I Minimally improved, number of patients (40 mg/day): 80 number of patients
CGI-I Minimally worse, % of patients (40 mg/day): (6.5) %
CGI-I Minimally worse, number of patients (40 mg/day): 16 number of patients
CGI-I Much improved, % of patients (40 mg/day): (21.5) %
CGI-I Much improved, number of patients (40 mg/day): 53 number of patients
CGI-I Much worse, % of patients (40 mg/day): (0.8) %
CGI-I Much worse, number of patients (40 mg/day): 2 number of patients
CGI-I No change, % of patients (40 mg/day): (34.1) %
CGI-I No change, number of patients (40 mg/day): 84 number of patients
CGI-I Very much improved, % of patients (40 mg/day): (4.5) %
CGI-I Very much improved, number of patients (40 mg/day): 11 number of patients
CGI-I Very much worse, % of patients (40 mg/day): (0.0) %
CGI-I Very much worse, number of patients (40 mg/day): 0 number of patients
